PubChem BioAssay (NCI)
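Five concentrations, 48 hours, 96-well plates. Abbreviation: GI50, concentration required for 50% inhibition of growth. The concentration for full growth arrest is given as TGI.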 Where a SMILES comes first, the peptide text is derived from it. [ ]: non-standard residue; d: D form. The star is where a group is joined. NMeF = CN[C@@H](Cc1ccccc1)C(=O)O; NMeV = CN[C@H](C(=O)O)C(C)C; Boc = CC(C)(C)OC(=O)*; OBn = c1ccc(CO*)cc1

Experiments:
Test in all cases: NCI-60 cell line screen, 48 h
K-562 leukemia = test system: K-562 leukemia
DU-145 prostate = test system: DU-145 prostate
CCRF-CEM leukemia = test system: CCRF-CEM leukemia
SR leukemia = test system: SR leukemia
UO-31 renal = test system: UO-31 renal
T-47D breast = test system: T-47D breast
TK-10 renal = test system: TK-10 renal
UACC-62 melanoma = test system: UACC-62 melanoma
SK-MEL-28 melanoma = test system: SK-MEL-28 melanoma
HS 578T breast = test system: HS 578T breast

| Compound | GI50 (K-562 leukemia) [µM] | TGI (K-562 leukemia) [µM] | GI50 (DU-145 prostate) [µM] | TGI (DU-145 prostate) [µM] | GI50 (CCRF-CEM leukemia) [µM] | TGI (CCRF-CEM leukemia) [µM] | GI50 (SR leukemia) [µM] | TGI (SR leukemia) [µM] | GI50 (UO-31 renal) [µM] | TGI (UO-31 renal) [µM] | GI50 (T-47D breast) [µM] | TGI (T-47D breast) [µM] | GI50 (TK-10 renal) [µM] | TGI (TK-10 renal) [µM] | GI50 (UACC-62 melanoma) [µM] | TGI (UACC-62 melanoma) [µM] | GI50 (SK-MEL-28 melanoma) [µM] | TGI (SK-MEL-28 melanoma) [µM] | GI50 (HS 578T breast) [µM] | TGI (HS 578T breast) [µM] |
| --- | --- | --- | --- | --- | --- | --- | --- | --- | --- | --- | --- | --- | --- | --- | --- | --- | --- | --- | --- | --- |
| CCn1c(-c2nonc2N)nc2cncc(C(=O)NCCNC)c21 | > 25 | > 25 | 22.8 | > 25 | > 19.9 | > 25 | 4.53 | > 25 | 0.684 | 5.77 | 16.7 | > 25 | 0.612 | 4.64 | 13.6 | > 25 | 12.9 | > 25 | 0.36 | > 6.59 |
| CCN(CC)CCCCNc1ncc2cc(-c3cc(OC)cc(OC)c3)c(NC(=O)NC(C)(C)C)nc2n1 | 2.95 | 9.37 | 8.08 | 22.9 | 3.96 | 66.1 | 2.11 | 5.68 | 1.37 | 15.5 | 10.8 | 29.3 | 6.77 | 21.1 | 4.2 | 15.1 | 4.67 | 12.4 | 4.72 | 28 |
| COc1ccc2cc(Cn3cc[n+](Cc4ccc5ccccc5c4)c3)ccc2c1 | 3.51 | 16.3 | 4.49 | 16.9 | 2.66 | 10.4 | 1.68 | 4.27 | 12.7 | 32.1 | 1.87 | 7.56 | 3.72 | 15 | 1.49 | 3.25 | 2 | 5.05 | 2.32 | 9.92 |
| O=C(NCCNc1nccc(-c2c(-c3ccc(F)cc3)nc3sccn23)n1)c1ccccc1 | 7.72 | > 100 | 12.7 | > 100 | 3.83 | 36.3 | 16.7 | 47.3 | 1.75 | 18.5 | 1.91 | 20.9 | 15.8 | 48.7 | 4.87 | 19.9 | 13.4 | 37.1 | 20.4 | > 100 |
| C=CC[C@@H]1/C=C(\C)C[C@H](C)C[C@H](OC)[C@H]2O[C@@](O)(C(=O)C(=O)N3CCCC[C@H]3C(=O)O[C@H](/C(C)=C/C3CC[C@@H](O)[C@H](OC)C3)[C@H](C)[C@@H](O)CC1=O)[C@H](C)C[C@@H]2OC (some centres not stated) | 18.7 | 52 | 16.1 | 30.2 | 14.6 | 39.7 | 14.1 | 39.8 | 12.8 | 26.4 | 16.5 | 35.6 | 14.3 | 27.8 | 13.4 | 27.6 | 15.2 | 29.2 | 21.9 | 65.9 |
| NC1=CC(=O)c2nc3ccccc3c3ccnc1c23 | 4.26 | > 100 | 0.495 | > 44.6 | 11.6 | > 100 | 2.47 | > 100 | 3.49 | > 56.4 | 7.85 | > 67.4 | 6.54 | 42.5 | 2.38 | 17.2 | 11.8 | 32 | 0.766 | 5.73 |
| CNC(=O)NC(CCCCNC(=O)OCc1ccccc1)C(=O)OCc1ccccc1 (configuration not stated) | – | 89.4 | – | > 100 | – | 71.8 | – | 99.5 | – | 98.3 | – | 51.3 | – | 99 | – | 33.1 | – | 41.5 | – | > 100 |
| CCOC(=O)c1c(Cl)c2c(n1Cc1cccc(OC)c1)-c1oncc1CC2 | 0.397 | > 100 | 2.42 | 27 | 2.07 | 84 | 0.444 | 24.1 | 3.37 | 78.6 | 4.41 | > 100 | 6.59 | > 100 | 0.608 | 29.3 | 4.89 | > 100 | 1.21 | 9.45 |
| CC(C)[C@@H](C(=O)N1CCC[C@H]1C(=O)OCc1ccccc1)N(C)C(=O)[C@H](C(C)C)N(C)C(=O)[C@H](Cc1ccccc1)N(C)C(=O)[C@H](NC(=O)OC(C)(C)C)C(C)C (Boc-[dV][NMeF][NMeV][NMeV]P-OBn) | > 100 | > 100 | – | > 50 | 36.9 | > 100 | – | > 100 | – | > 100 | – | > 50 | – | > 100 | – | > 100 | – | > 100 | – | > 50 |
| Cc1cc(C)c2nc3nc(C)cc(C)c3c(N)c2c1 | 3.45 | 15.9 | 4.72 | 17.9 | 9.33 | 45.7 | 2.47 | 13.3 | 2.9 | 16 | 5.89 | 34.2 | 3.34 | 19.1 | 4.83 | 18.9 | 12.6 | 27 | 12.7 | 45.2 |
